According to US20240050428A1 (Cullgen (Shanghai), Inc., priority 2020, published 2024):
pIC50: −log10 of the molar value. Read-outs that look alike come from different tables or passages of the source.

Legend:
MOLM-13 cells = experiment: Cell viability assay (CellTiter-Glo) in MOLM-13 cells, alone or with gilteritinib; format: cell-based; conditions: MOLM-13 cells, three days, CellTiter-Glo
MV4;11 cells = experiment: Cell viability assay (CellTiter-Glo) in MV4;11 cells, alone or with gilteritinib; format: cell-based; conditions: MV4;11 cells, three days, CellTiter-Glo, read-out: MV4
[1] = Homo sapiens, MOLM-13, 72 h, compound alone (without gilteritinib), read-out: MOLM-13 IC50
[2] = Homo sapiens, MOLM-13, 72 h, with gilteritinib 20 nM, read-out: MOLM-13 IC50 gilteritinib
[3] = Homo sapiens, MV4-11, 72 h, compound alone (without gilteritinib), 11 IC50
[4] = Homo sapiens, MV4-11, 72 h, with gilteritinib 10 nM, 11 IC50 gilteritinib
[5] = Homo sapiens, 72 h, compound alone (without gilteritinib), read-out: MOLM-13 IC50
[6] = Homo sapiens, 72 h, compound alone (without gilteritinib), 11 IC50
[7] = Homo sapiens, MOLM-13, 72 h, compound with gilteritinib 20 nM, read-out: MOLM-13 IC50 gilteritinib
[8] = Homo sapiens, MV4-11, 72 h, compound with gilteritinib 10 nM, 11 IC50 gilteritinib

pIC50 (MOLM-13 cells; [1]) | pIC50 (MOLM-13 cells; [2]) | pIC50 (MV4;11 cells; [3]) | pIC50 (MV4;11 cells; [4]) | SMILES | also measured
6.00 to 7.00 | 7.00 to 8.00 | 6.00 to 7.00 | 7.00 to 8.00 | O=C1CCC(N2C(=O)c3ccc(NCCC[C@H]4C[C@H](n5cc(-c6cnc7ccc(CN8CCOCC8)cc7n6)cn5)C4)cc3C2=O)C(=O)N1 (stereo partly drawn) [GS-208, 2-(2,6-Dioxopiperidin-3-yl)-5-((3-(trans-3-(4-(7-(morpholinomethyl)quinoxalin-2-yl)-1H-pyrazol-1-yl)cyclobutyl)propyl)amino)isoindoline-1,3-dione] | –
– | – | – | – | O=C1CCC(N2C(=O)c3ccc(NCCCCCCn4cc(-c5nc6ccccc6nc5C(F)F)cn4)cc3C2=O)C(=O)N1 (stereo not drawn) [GS-547, 5-((6-(4-(3-(Difluoromethyl)quinoxalin-2-yl)-1H-pyrazol-1-yl)hexyl)amino)-2-(2,6-dioxopiperidin-3-yl)isoindoline-1,3-dione] | pIC50 (MOLM-13 cells; [5]): < 6.00; pIC50 (MOLM-13 cells; Homo sapiens, 72 h, compound with gilteritinib 20 nM, read-out: MOLM-13 IC50 gilteritinib): 7.00 to 8.00; pIC50 (MV4;11 cells; [6]): 6.00 to 7.00; pIC50 (MV4;11 cells; Homo sapiens, 72 h, compound with gilteritinib 10 nM, 11 IC50 gilteritinib): 7.00 to 8.00
< 6.00 | 7.00 to 8.00 | 7.00 to 8.00 | 7.00 to 8.00 | CN(C)c1cccc(-c2cnn([C@H]3C[C@H](CCCNc4ccc5c(c4)C(=O)N(C4CCC(=O)NC4=O)C5=O)C3)c2)n1 (stereo partly drawn) [GS-248, 5-((3-(trans-3-(4-(6-(Dimethylamino)pyridin-2-yl)-1H-pyrazol-1-yl)cyclobutyl)propyl)amino)-2-(2,6-dioxopiperidin-3-yl)isoindoline-1,3-dione] | –
< 6.00 | 7.00 to 8.00 | 6.00 to 7.00 | 7.00 to 8.00 | O=C1CCC(N2C(=O)c3ccc(NCCCCCCn4cc(-c5cnc6cccc(Cl)c6n5)cn4)cc3C2=O)C(=O)N1 (stereo not drawn) [GS-376, 5-((6-(4-(8-Chloroquinoxalin-2-yl)-1H-pyrazol-1-yl)hexyl)amino)-2-(2,6-dioxopiperidin-3-yl)isoindoline-1,3-dione] | –
< 6.00 | – | < 6.00 | – | O=C1CCC(N2C(=O)c3ccc(NCCC4CC(n5cc(-c6cnc7ccccc7n6)cn5)C4)cc3C2=O)C(=O)N1 (stereo not drawn) [GS-561, 2-(2,6-Dioxopiperidin-3-yl)-5-((2-(3-(4-(quinoxalin-2-yl)-1H-pyrazol-1-yl)cyclobutyl)ethyl)amino)isoindoline-1,3-dione] | pIC50 (MOLM-13 cells; [7]): 7.00 to 8.00; pIC50 (MV4;11 cells; [8]): 6.00 to 7.00
< 6.00 | 7.00 to 8.00 | < 6.00 | < 6.00 | O=C1CCC(N2C(=O)c3ccc(NCCCN4CCCC(n5cc(-c6cnc7ccccc7n6)cn5)C4)cc3C2=O)C(=O)N1 (stereo not drawn) [GS-347, 2-(2,6-Dioxopiperidin-3-yl)-5-((3-(3-(4-(quinoxalin-2-yl)-1H-pyrazol-1-yl)piperidin-1-yl)propyl)amino)isoindoline-1,3-dione] | –
< 6.00 | 7.00 to 8.00 | 7.00 to 8.00 | > 8.00 | O=C1CCC(N2C(=O)c3ccc(NC[C@H]4C[C@H](n5cc(-c6cnc7ccc(CN8CCNCC8)cc7n6)c(C6CC6)n5)C4)cc3C2=O)C(=O)N1 (stereo partly drawn) [GS-068, 5-(((trans-3-(3-cyclopropyl-4-(7-(piperazin-1-ylmethyl)quinoxalin-2-yl)-1H-pyrazol-1-yl)cyclobutyl)methyl)amino)-2-(2,6-dioxopiperidin-3-yl)isoindoline-1,3-dione] | –
> 8.00 | > 8.00 | > 8.00 | > 8.00 | Cc1cccnc1-c1cn([C@H]2C[C@H](CNc3ccc4c(c3)C(=O)N(C3CCC(=O)NC3=O)C4=O)C2)nc1C1CC1 (stereo partly drawn) [GS-261, 5-(((trans-3-(3-Cyclopropyl-4-(3-methylpyridin-2-yl)-1H-pyrazol-1-yl)cyclobutyl)methyl)amino)-2-(2,6-dioxopiperidin-3-yl)isoindoline-1,3-dione] | –
– | – | – | – | O=C1CCC(N2C(=O)c3ccc(NCCC[C@H]4C[C@H](n5cc(-c6cnc7ccc(N8CCN(CC(F)(F)F)CC8)cc7n6)cn5)C4)cc3C2=O)C(=O)N1 (stereo partly drawn) [GS-593, 2-(2,6-Dioxopiperidin-3-yl)-5-((3-(trans-3-(4-(7-(4-(2,2,2-trifluoroethyl)piperazin-1-yl)quinoxalin-2-yl)-1H-pyrazol-1-yl)cyclobutyl)propyl)amino)isoindoline-1,3-dione] | pIC50 (MOLM-13 cells; compound alone (without gilteritinib), read-out: MOLM-13 IC50): 6.00 to 7.00; pIC50 (MV4;11 cells; compound with gilteritinib 10 nM, 11 IC50 gilteritinib): > 8.00
< 6.00 | < 6.00 | < 6.00 | < 6.00 | O=C1CCC(N2C(=O)c3ccc(NC[C@H]4C[C@H](n5cc(-c6cnc7ccc(N8CCNCC8)cc7n6)cn5)C4)cc3C2=O)C(=O)N1 (stereo partly drawn) [GS-187, 2-(2,6-Dioxopiperidin-3-yl)-5-(((trans-3-(4-(7-(piperazin-1-yl)quinoxalin-2-yl)-1H-pyrazol-1-yl)cyclobutyl)methyl)amino)isoindoline-1,3-dione] | –
7.00 to 8.00 | > 8.00 | 7.00 to 8.00 | > 8.00 | Cc1nn([C@H]2C[C@H](CCCNc3ccc4c(c3)C(=O)N(C3CCC(=O)NC3=O)C4=O)C2)cc1-c1cnc2ccccc2n1 (stereo partly drawn) [GS-171, 2-(2,6-Dioxopiperidin-3-yl)-5-((3-(trans-3-(3-methyl-4-(quinoxalin-2-yl)-1H-pyrazol-1-yl)cyclobutyl)propyl)amino)isoindoline-1,3-dione] | –
– | – | – | – | O=C1CCC(N2Cc3ccc(CCCCCCC(=O)N4CCC(c5ccc(Cl)cc5)CC4)cc3C2=O)C(=O)N1 (stereo not drawn) [GS-116, 3-(6-(7-(4-(4-Chlorophenyl)piperidin-1-yl)-7-oxoheptyl)-1-oxoisoindolin-2-yl)piperidine-2,6-dione] | pIC50 (MOLM-13 cells; [5]): 6.00 to 7.00; pIC50 (MOLM-13 cells; Homo sapiens, 72 h, with gilteritinib 20 nM, read-out: MOLM-13 IC50 gilteritinib): > 8.00; pIC50 (MV4;11 cells; [6]): 7.00 to 8.00; pIC50 (MV4;11 cells; Homo sapiens, 72 h, with gilteritinib 10 nM, 11 IC50 gilteritinib): > 8.00
6.00 to 7.00 | 7.00 to 8.00 | 7.00 to 8.00 | 7.00 to 8.00 | O=C1CCC(N2C(=O)c3ccc(NC[C@H]4C[C@H](n5cc(-c6nccc7cn[nH]c67)c(C6CC6)n5)C4)cc3C2=O)C(=O)N1 (stereo partly drawn) [GS-310, 5-(((trans-3-(3-Cyclopropyl-4-(1H-pyrazolo[3,4-c]pyridin-7-yl)-1H-pyrazol-1-yl)cyclobutyl)methyl)amino)-2-(2,6-dioxopiperidin-3-yl)isoindoline-1,3-dione] | –
7.00 to 8.00 | – | 7.00 to 8.00 | – | O=C1CCC(N2C(=O)c3ccc(NC[C@H]4C[C@H](n5nc(C6CC6)c6cccnc65)C4)cc3C2=O)C(=O)N1 (stereo partly drawn) [GS-470, 5-(((trans-3-(3-cyclopropyl-1H-pyrazolo[3,4-b]pyridin-1-yl)cyclobutyl)methyl)amino)-2-(2,6-dioxopiperidin-3-yl)isoindoline-1,3-dione] | pIC50 (MOLM-13 cells; [7]): > 8.00; pIC50 (MV4;11 cells; [8]): > 8.00
6.00 to 7.00 | 7.00 to 8.00 | 6.00 to 7.00 | 7.00 to 8.00 | O=C1CCC(N2C(=O)c3ccc(NCCCCCCNc4ncc(-c5cnc6ccccc6n5)s4)cc3C2=O)C(=O)N1 (stereo not drawn) [GS-385, 2-(2,6-Dioxopiperidin-3-yl)-5-((6-((5-(quinoxalin-2-yl)thiazol-2-yl)amino)hexyl)amino)isoindoline-1,3-dione] | –
< 6.00 | < 6.00 | < 6.00 | < 6.00 | O=C1CCC(N2Cc3c(Nc4ccnc(Nc5cccc(CN6CCC(n7cc(-c8cnc9ccccc9n8)cn7)CC6)c5)n4)cccc3C2=O)C(=O)N1 (stereo not drawn) [GS-029, 3-(1-Oxo-4-((2-((3-((4-(4-(quinoxalin-2-yl)-1H-pyrazol-1-yl)piperidin-1-yl)methyl)phenyl)amino)pyrimidin-4-yl)amino)isoindolin-2-yl)piperidine-2,6-dione] | –
7.00 to 8.00 | > 8.00 | 7.00 to 8.00 | > 8.00 | O=C1CCC(N2Cc3c(NC4CCC(Nc5cccc(N6CCC(n7cc(-c8cnc9ccccc9n8)cn7)CC6)c5)CC4)cccc3C2=O)C(=O)N1 (stereo not drawn) [GS-378, 3-(1-Oxo-4-((4-((3-(4-(4-(quinoxalin-2-yl)-1H-pyrazol-1-yl)piperidin-1-yl)phenyl)amino)cyclohexyl)amino)isoindolin-2-yl)piperidine-2,6-dione] | –
< 6.00 | < 6.00 | 6.00 to 7.00 | 6.00 to 7.00 | O=C1CCC(N2Cc3c(NC4CCCC(Nc5nccc(N6CCC(n7cc(-c8cnc9ccccc9n8)cn7)CC6)n5)C4)cccc3C2=O)C(=O)N1 (stereo not drawn) [GS-125, 3-(1-Oxo-4-((3-((4-(4-(4-(quinoxalin-2-yl)-1H-pyrazol-1-yl)piperidin-1-yl)pyrimidin-2-yl)amino)cyclohexyl)amino)isoindolin-2-yl)piperidine-2,6-dione] | –
7.00 to 8.00 | – | > 8.00 | – | O=C1CCC(N2C(=O)c3ccc(NCCC[C@H]4C[C@H](n5cc(-c6cnc7c(C8CCNCC8)cccc7n6)cn5)C4)cc3C2=O)C(=O)N1 (stereo partly drawn) [GS-431, 2-(2,6-dioxopiperidin-3-yl)-5-((3-(trans-3-(4-(5-(piperidin-4-yl)quinoxalin-2-yl)-1H-pyrazol-1-yl)cyclobutyl)propyl)amino)isoindoline-1,3-dione] | pIC50 (MOLM-13 cells; [7]): > 8.00; pIC50 (MV4;11 cells; [8]): > 8.00
> 8.00 | > 8.00 | > 8.00 | > 8.00 | Cc1nn([C@H]2C[C@H](CCCNc3ccc4c(c3)C(=O)N(C3CCC(=O)NC3=O)C4=O)C2)cc1-c1cnc2ccc(N3CCOCC3)cc2n1 (stereo partly drawn) [GS-399] | –
